The values below come from PubChem BioAssay AID1053167 (Broad Institute, 2014).

As usually defined, the AC50 is the concentration giving half of the maximal activity seen.

“And” between values parts separate entries of the source, which are not always exact repeats. Identical values can stand only once. The source made the active and inactive calls. No rule for the calls is given here. A value given as a limit tells only on which side of the number the result lay.

Test system in the first assay: not listed separately
The experiment in a line: Vaccinia virus infected cells, stage specific inhibitors, dose response, confirmatory, dry powder (AID 1053167). The settings on record: Vaccinia virus infected cells, plate reader read-out; at 1 µM (top of the series).
For the compound `CO[C@H]1CN(C)C(=O)c2ccc(NC(=O)c3ccc(F)cc3)cc2OC[C@H](C)N(C(=O)c2ccc(F)cc2)C[C@@H]1C`, the activity change, negative = inhibition was 0% (inactive).
Same read-out and setting: under `C[C@H](O)C#Cc1ccc2c(c1)O[C@@H](CN(C)Cc1ccc(-c3ccccc3)cc1)[C@H](C)CN([C@@H](C)CO)S2(=O)=O` stands 6% (inactive).

The same assay, now with this note: Vaccinia virus infected cells, plate reader read-out; at 10 µM (top of the series).
For the compound `CNC[C@@H]1Oc2cc(Br)ccc2S(=O)(=O)N([C@@H](C)CO)C[C@@H]1C`, the activity change, negative = inhibition is -1% (inactive).
In the case of `C[C@H]1CN([C@@H](C)CO)S(=O)(=O)c2ccc(Br)cc2O[C@H]1CN(C)Cc1ccc(-c2ccccc2)cc1`, the activity change, negative = inhibition is -19% (inactive).
The same measure, in the same setting: then `C[C@H](O)C#Cc1ccc2c(c1)O[C@@H](CN(C)Cc1ccc(-c3ccccc3)cc1)[C@@H](C)CN([C@H](C)CO)S2(=O)=O`, with 1% (inactive); and `C[C@@H](O)C#Cc1ccc2c(c1)O[C@@H](CN(C)S(=O)(=O)c1ccc(-c3ccccc3)cc1)[C@@H](C)CN([C@@H](C)CO)S2(=O)=O`, with -14% (inactive); and `C[C@H](O)C#Cc1ccc2c(c1)O[C@@H](CN(C)Cc1ccc(-c3ccccc3)cc1)[C@@H](C)CN([C@@H](C)CO)S2(=O)=O`, with -4% (inactive).
On the same count and under the same terms, then `C[C@@H](O)C#Cc1ccc2c(c1)O[C@@H](CN(C)C(=O)c1ccc(-c3ccccc3)cc1)[C@@H](C)CN([C@@H](C)CO)S2(=O)=O`, with -22% (inactive).

The next assay has as its system Vaccinia virus infected cells, plate reader read-out. Described as above.
Details: not given
For `C[C@@H](O)C#Cc1ccc2c(c1)O[C@@H](CN(C)Cc1ccc(-c3ccccc3)cc1)[C@@H](C)CN([C@@H](C)CO)S2(=O)=O`, the AC50 is 2940 nM and 3900 nM.
Still for that read-out and setting: under `C[C@@H]1CN([C@H](C)CO)S(=O)(=O)c2ccc(C#C[C@@H](C)O)cc2O[C@H]1CN(C)Cc1ccc(-c2ccccc2)cc1` stands 7160 nM; under `C[C@@H](O)C#Cc1ccc2c(c1)O[C@@H](CN(C)Cc1ccccc1)[C@@H](C)CN([C@@H](C)CO)S2(=O)=O`, 8730 nM.
Same read-out and setting: then `COc1ccccc1-c1ccc(CN(C)C[C@@H]2Oc3cc(C#C[C@@H](C)O)ccc3S(=O)(=O)N([C@@H](C)CO)C[C@@H]2C)cc1`, with 2140 nM; and `C[C@H]1CN([C@@H](C)CO)S(=O)(=O)c2ccc(C#CC(C)(C)O)cc2O[C@H]1CN(C)Cc1ccc(-c2ccccc2)cc1`, with > 20000 nM (inactive).
With `Cc1ccc(-c2ccc(CN(C)C[C@@H]3Oc4cc(C#C[C@@H](C)O)ccc4S(=O)(=O)N([C@@H](C)CO)C[C@@H]3C)cc2)cc1`, the AC50 was 1480 nM.
Same read-out and setting: then `COc1cccc(-c2ccc(CN(C)C[C@@H]3Oc4cc(C#C[C@@H](C)O)ccc4S(=O)(=O)N([C@@H](C)CO)C[C@@H]3C)cc2)c1`, with 2770 nM.
As for `Cc1ccccc1-c1ccc(CN(C)C[C@@H]2Oc3cc(C#C[C@@H](C)O)ccc3S(=O)(=O)N([C@@H](C)CO)C[C@@H]2C)cc1`, the AC50 was 1160 nM.
On the same count and under the same terms, under `C[C@@H](O)C#Cc1ccc2c(c1)O[C@@H](CN(C)Cc1ccc(-c3ccc(Cl)cc3)cc1)[C@@H](C)CN([C@@H](C)CO)S2(=O)=O` stands 1210 nM.
The same measure, in the same setting: under `C[C@@H](O)C#Cc1ccc2c(c1)O[C@@H](CN(C)Cc1ccc(-c3cccc(Cl)c3)cc1)[C@@H](C)CN([C@@H](C)CO)S2(=O)=O` stands 2560 nM.
In the case of `C[C@H](O)C#Cc1ccc2c(c1)O[C@H](CN(C)Cc1ccc(-c3ccccc3)cc1)[C@@H](C)CN([C@H](C)CO)S2(=O)=O`, the AC50 was > 20000 nM (inactive).
For the compound `C[C@H]1CN([C@@H](C)CO)S(=O)(=O)c2ccc(-c3ccc(O)cc3)cc2O[C@H]1CN(C)Cc1ccc(-c2ccccc2)cc1`, the AC50 is > 20000 nM (inactive).
Take `Cc1cccc(-c2ccc(CN(C)C[C@@H]3Oc4cc(C#C[C@@H](C)O)ccc4S(=O)(=O)N([C@@H](C)CO)C[C@@H]3C)cc2)c1`: the AC50 is 1740 nM.
Consider `C[C@@H](O)C#Cc1ccc2c(c1)O[C@@H](CN(C)Cc1ccc(-c3ccccc3Cl)cc1)[C@@H](C)CN([C@@H](C)CO)S2(=O)=O`, for which the AC50 was 1340 nM.
Turning to `C[C@H](O)C#Cc1ccc2c(c1)O[C@H](CN(C)Cc1ccc(-c3ccccc3)cc1)[C@@H](C)CN([C@@H](C)CO)S2(=O)=O`, the AC50 is 5700 nM.
The same measure, in the same setting: then `C[C@H](O)C#Cc1ccc2c(c1)O[C@H](CN(C)Cc1ccc(-c3ccccc3)cc1)[C@H](C)CN([C@H](C)CO)S2(=O)=O`, with > 20000 nM (inactive); and `C[C@@H]1CN([C@@H](C)CO)S(=O)(=O)c2ccc(C#C[C@@H](C)O)cc2O[C@@H]1CN(C)Cc1ccc(-c2ccccc2)cc1`, with > 20000 nM (inactive).
On the same count and under the same terms, under `COc1ccc(-c2ccc3c(c2)O[C@@H](CN(C)Cc2ccc(-c4ccccc4)cc2)[C@@H](C)CN([C@@H](C)CO)S3(=O)=O)cc1` stands > 20000 nM (inactive); under `COc1ccc(-c2ccc(CN(C)C[C@@H]3Oc4cc(C#C[C@@H](C)O)ccc4S(=O)(=O)N([C@@H](C)CO)C[C@@H]3C)cc2)cc1`, 2200 nM; under `C[C@H](O)C#Cc1ccc2c(c1)O[C@@H](CN(C)Cc1ccc(-c3ccccc3)cc1)[C@H](C)CN([C@H](C)CO)S2(=O)=O`, > 20000 nM (inactive).
